Active and inactive are the calls of the source.
Legend:
[1] = target: T1, Voltage-gated N-type calcium channel alpha-1B subunit/Amyloid beta A4 precursor protein-binding family A member 1 (Homo sapiens, UniProt Q00975+Q02410); format: protein assay
[2] = target: Glucose-6-phosphate 1-dehydrogenase (Homo sapiens, UniProt P11413); test: inhibition of Homo sapiens G6PD, dose series – biochemical, fluorescence, selectivity assay for P. falciparum G6PD inhibitor project, dose response (AID 504792); format: functional
[3] = target: T1, Voltage-gated N-type calcium channel alpha-1B subunit/Amyloid beta A4 precursor protein-binding family A member 1; format: protein assay; remark: listed apart in the source
[4] = target: T2, DNA dC->dU-editing enzyme APOBEC-3G (Homo sapiens, UniProt Q9HC16); test: Dose Response confirmation of small molecule APOBEC3G DNA Deaminase Inhibitors via a fluorescence-based single-stranded DNA deaminase assay. [Related pubchem assays (depositor defined):AID493012, AID493028]; format: functional
[5] = target: T3, Melanin-concentrating hormone receptor 1 (Homo sapiens, UniProt Q99705); test: Late-stage fluorescence-based counterscreen for antagonists of the G-protein coupled receptor 7 (GPR7): cell-based dose response assay to identify antagonists of the melanin-concentrating hormone receptor 1 (MCHR1). [Related pubchem assays (depositor defined):AID1861, AID1880, AID1952, AID2148, AID2251, AID2257, AID485339]; format: functional
[6] = target: T4, Corticotropin-releasing factor receptor 2/Corticotropin-releasing factor-binding protein (Homo sapiens, UniProt P24387+Q13324); test: activators of CRF receptor 2 with binding protein – uHTS hits, confirmation (AID 602473); format: functional; conditions: read-out: EC50_Mean
T4 sequence (Q13324 whole entry): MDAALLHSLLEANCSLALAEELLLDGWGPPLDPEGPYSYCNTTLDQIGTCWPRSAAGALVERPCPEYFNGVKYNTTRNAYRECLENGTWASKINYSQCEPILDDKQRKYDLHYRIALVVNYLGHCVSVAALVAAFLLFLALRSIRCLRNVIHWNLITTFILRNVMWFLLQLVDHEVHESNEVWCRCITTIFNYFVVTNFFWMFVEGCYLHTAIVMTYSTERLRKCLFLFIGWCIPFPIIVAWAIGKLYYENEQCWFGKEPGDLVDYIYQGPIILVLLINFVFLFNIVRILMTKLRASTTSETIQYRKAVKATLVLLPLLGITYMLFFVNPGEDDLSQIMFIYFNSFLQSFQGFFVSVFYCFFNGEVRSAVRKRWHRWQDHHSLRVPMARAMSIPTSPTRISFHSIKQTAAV
T4 sequence (P24387 whole entry): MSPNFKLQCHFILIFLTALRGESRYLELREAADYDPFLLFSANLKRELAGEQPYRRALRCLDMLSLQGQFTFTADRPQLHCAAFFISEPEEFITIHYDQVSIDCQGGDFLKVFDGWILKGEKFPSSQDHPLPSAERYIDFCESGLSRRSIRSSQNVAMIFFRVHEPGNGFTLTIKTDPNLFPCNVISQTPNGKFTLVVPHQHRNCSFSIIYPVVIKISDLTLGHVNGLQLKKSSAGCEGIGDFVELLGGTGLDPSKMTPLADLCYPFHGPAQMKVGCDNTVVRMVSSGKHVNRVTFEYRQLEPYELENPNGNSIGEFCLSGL

[7] = target: T5, Neuropeptides B/W receptor type 1 (Homo sapiens, UniProt P48145); test: human NPBW1 receptor blockade, IC50 – cell-based, fluorescence, dose response, late-stage follow-up (AID 463251); format: functional
T5 sequence (P48145 whole entry): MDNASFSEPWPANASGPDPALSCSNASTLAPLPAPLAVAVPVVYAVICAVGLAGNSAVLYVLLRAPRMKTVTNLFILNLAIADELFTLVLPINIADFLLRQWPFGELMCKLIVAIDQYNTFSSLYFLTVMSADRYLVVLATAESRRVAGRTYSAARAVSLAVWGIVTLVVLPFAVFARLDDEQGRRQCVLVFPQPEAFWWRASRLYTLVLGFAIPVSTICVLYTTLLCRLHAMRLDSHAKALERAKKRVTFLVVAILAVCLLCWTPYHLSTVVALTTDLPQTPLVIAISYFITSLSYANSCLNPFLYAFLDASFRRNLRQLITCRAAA

[8] = target: T3, Melanin-concentrating hormone receptor 1; test: Fluorescence-based counterscreen for antagonists of the G-protein coupled receptor 7 (GPR7): cell-based high throughput dose response assay to identify antagonists of the melanin-concentrating hormone receptor 1 (MCHR1).; format: functional
[9] = target: T5, Neuropeptides B/W receptor type 1; test: Fluorescence-based dose response cell-based high throughput screening assay to identify antagonists of the G-protein coupled receptor 7 (GPR7). [Related pubchem assays: 1952 (Screening assay (GPR7 antagonists).), 1880 (Summary AID.)]; format: functional
[10] = target: T6, Alkaline phosphatase, tissue-nonspecific isozyme (Homo sapiens, UniProt P05186); test: activation of tissue-nonspecific alkaline phosphatase – biochemical, TNAP isozyme, human IAP uHTS hits, selectivity assay for human IAP activator project, dose response (AID 488886); format: functional;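 also: potency of compounds raising TNAP activity as a selectivity check on IAP activators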
T6 sequence (P05186 whole entry): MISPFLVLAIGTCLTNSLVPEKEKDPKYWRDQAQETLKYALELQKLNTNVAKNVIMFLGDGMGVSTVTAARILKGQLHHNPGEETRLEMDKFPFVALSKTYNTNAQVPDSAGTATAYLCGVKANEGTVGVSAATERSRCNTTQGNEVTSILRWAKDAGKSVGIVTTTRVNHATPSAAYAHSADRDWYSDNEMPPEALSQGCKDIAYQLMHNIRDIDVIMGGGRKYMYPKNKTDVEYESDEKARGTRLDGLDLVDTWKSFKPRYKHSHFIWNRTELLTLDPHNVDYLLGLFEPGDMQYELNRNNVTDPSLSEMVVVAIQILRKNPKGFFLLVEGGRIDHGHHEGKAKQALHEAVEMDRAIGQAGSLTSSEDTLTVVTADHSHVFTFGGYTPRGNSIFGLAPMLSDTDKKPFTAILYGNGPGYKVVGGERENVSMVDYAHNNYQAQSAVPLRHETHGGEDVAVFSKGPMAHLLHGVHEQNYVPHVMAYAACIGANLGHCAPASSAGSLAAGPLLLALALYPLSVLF

[11] = target: T7, Intestinal-type alkaline phosphatase (Homo sapiens, UniProt P09923); test: human intestinal alkaline phosphatase activators, dose response, biochemical, luminescence, uHTS hits (AID 463120); format: functional
[12] = target: T8, Intestinal-type alkaline phosphatase (Mus musculus, UniProt P24822); test: PubChem AID 488875; format: functional
[13] = target: T7, Intestinal-type alkaline phosphatase; test: activation of human intestinal alkaline phosphatase – biochemical, luminescent, uHTS hits, set 2, dose response (AID 488817); format: functional;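 also: potency of activators that raise enzyme activity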
[14] = target: T8, Intestinal-type alkaline phosphatase; test: PubChem AID 488874; format: functional
SUMO E1/E2 = SUMO E1/E2 (Homo sapiens, UniProt P63279+Q9UBE0+Q9UBT2); test: SAR analysis of SUMOylation using HTRF in an in-Vitro dose response assay. [Related pubchem assays (depositor defined):AID2006, AID2011, AID2018, AID2069, AID2658]; format: functional
[15] = target: T1, Voltage-gated N-type calcium channel alpha-1B subunit/Amyloid beta A4 precursor protein-binding family A member 1; test: disruptors of Mint-PDZ/N-type channel peptide interaction – biochemical, HTRF, SAR follow-up (AID 2489); format: functional
[16] = target: T1, Voltage-gated N-type calcium channel alpha-1B subunit/Amyloid beta A4 precursor protein-binding family A member 1; test: disruptors of Mint-PDZ/N-type channel peptide interaction – biochemical, HTRF, set 2, SAR follow-up (AID 434980); format: functional
[17] = target: SWI/SNF-related matrix-associated actin-dependent regulator of chromatin subfamily A member 2 (Homo sapiens, UniProt P51531); test: Luminescence-based cell-based high throughput dose response assay to identify activators of the function of SWI/SNF related, matrix associated, actin dependent regulator of chromatin, subfamily a, member 2 (SMARCA2, BRM).; format: functional
[18] = Counterscreen for activators of the function of SWI/SNF related, matrix associated, actin dependent regulator of chromatin, subfamily a, member 2 (SMARCA2, BRM): Luminescence-based cell-based high throughput dose response assay to identify non-selective compounds using the VP16 reporter assay.; format: functional
[19] = target: T7, Intestinal-type alkaline phosphatase; test: Dose Response confirmation of uHTS hits from a small molecule inhibitors of human intestinal alkaline phosphatase via a luminescent assay. [Related pubchem assays (depositor defined):AID2544, AID2574]; format: functional
[20] = target: T9, Fructose-bisphosphate aldolase (Mycobacterium tuberculosis, UniProt P9WQA3); test: Fluorescence-based biochemical high throughput dose response assay for inhibitors of the fructose-bisphosphate aldolase (FBA) of M. tuberculosis.; format: functional
T9 sequence (P9WQA3 whole entry): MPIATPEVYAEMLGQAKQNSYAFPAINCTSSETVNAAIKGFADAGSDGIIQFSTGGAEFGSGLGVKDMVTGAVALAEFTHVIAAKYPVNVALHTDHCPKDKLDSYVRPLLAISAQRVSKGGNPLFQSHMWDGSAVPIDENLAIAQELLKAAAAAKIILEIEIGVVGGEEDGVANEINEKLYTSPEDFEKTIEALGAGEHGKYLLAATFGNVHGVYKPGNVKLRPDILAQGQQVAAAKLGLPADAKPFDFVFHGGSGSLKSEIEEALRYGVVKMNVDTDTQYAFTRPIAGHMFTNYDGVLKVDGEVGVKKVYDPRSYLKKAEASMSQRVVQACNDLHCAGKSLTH

[21] = target: Phosphoethanolamine/phosphocholine phosphatase (Homo sapiens, UniProt Q8TCT1); test: SAR assay for compounds that inhibit PHOSPHO1. [Related pubchem assays (depositor defined):AID1545, AID1565, AID1574]
[22] = target: DNA dC->dU-editing enzyme APOBEC-3A (Homo sapiens, UniProt P31941); test: Dose Response confirmation of small molecule APOBEC3A DNA Deaminase Inhibitors via a fluorescence-based single-stranded DNA deaminase assay. [Related pubchem assays (depositor defined):AID493011, AID493024]; format: functional
[23] = target: T2, DNA dC->dU-editing enzyme APOBEC-3G; format: functional
HEK293 [24] = test: NOD2 signaling inhibitors in MDP-stimulated cells, cell-based, uHTS, luminescence (AID 2001); format: functional; conditions: Homo sapiens
[25] = target: Nucleotide-binding oligomerization domain-containing protein 2 (Homo sapiens, UniProt Q9HC29); test: inhibition of NOD2-driven NF-kB reporter – cell-based, luminescence, uHTS, HEK293 (AID 1566); format: functional
HEK293 [26] = test: inhibition of NOD1-driven NF-kB reporter – cell-based, luminescence, uHTS, primary screen (AID 1578); format: functional; conditions: Homo sapiens
[27] = Luminescence Cell-Based Dose Response HTS to Identify Inhibitors of 5'UTR Stem-Loop Driven Prion Protein mRNA Translation in H4 Neuroglioblastoma Cells. [Related pubchem assays: 1827 (Project Summary), 1813 (Primary HTS)]; format: functional
HEK293 [28] = test: cells; format: functional, cell-based; conditions: Homo sapiens
HEK293 [29] = test: cells; format: functional, cell-based; conditions: Homo sapiens; remark: listed apart in the source
HEK293 [30] = test: cells; format: functional, cell-based; conditions: Homo sapiens; remark: listed apart in the source
[31] = luciferase reporter signal suppression in cells – H4 neuroglioma cells, luminescence, dose response (AID 1990); format: functional, cell-based
[32] = alpha-synuclein stem-loop luciferase translation blockers – H4 neuroglioma cells, luminescence, confirmation (AID 1988); format: functional, cell-based

T7 sequence (P09923 whole entry): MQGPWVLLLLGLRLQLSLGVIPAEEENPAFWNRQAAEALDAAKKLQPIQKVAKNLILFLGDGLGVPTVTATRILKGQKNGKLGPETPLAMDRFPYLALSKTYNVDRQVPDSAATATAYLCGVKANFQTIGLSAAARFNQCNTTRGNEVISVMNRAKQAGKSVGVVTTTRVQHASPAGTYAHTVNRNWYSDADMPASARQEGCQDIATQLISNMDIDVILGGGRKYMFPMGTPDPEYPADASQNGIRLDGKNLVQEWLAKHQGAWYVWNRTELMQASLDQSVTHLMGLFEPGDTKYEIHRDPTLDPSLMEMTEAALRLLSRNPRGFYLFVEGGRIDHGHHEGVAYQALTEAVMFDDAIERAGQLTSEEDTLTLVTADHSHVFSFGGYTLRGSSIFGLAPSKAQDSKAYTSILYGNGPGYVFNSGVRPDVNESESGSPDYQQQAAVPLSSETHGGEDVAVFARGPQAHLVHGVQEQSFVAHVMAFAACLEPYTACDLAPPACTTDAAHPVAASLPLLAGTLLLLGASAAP
T1 sequence (Q00975 whole entry): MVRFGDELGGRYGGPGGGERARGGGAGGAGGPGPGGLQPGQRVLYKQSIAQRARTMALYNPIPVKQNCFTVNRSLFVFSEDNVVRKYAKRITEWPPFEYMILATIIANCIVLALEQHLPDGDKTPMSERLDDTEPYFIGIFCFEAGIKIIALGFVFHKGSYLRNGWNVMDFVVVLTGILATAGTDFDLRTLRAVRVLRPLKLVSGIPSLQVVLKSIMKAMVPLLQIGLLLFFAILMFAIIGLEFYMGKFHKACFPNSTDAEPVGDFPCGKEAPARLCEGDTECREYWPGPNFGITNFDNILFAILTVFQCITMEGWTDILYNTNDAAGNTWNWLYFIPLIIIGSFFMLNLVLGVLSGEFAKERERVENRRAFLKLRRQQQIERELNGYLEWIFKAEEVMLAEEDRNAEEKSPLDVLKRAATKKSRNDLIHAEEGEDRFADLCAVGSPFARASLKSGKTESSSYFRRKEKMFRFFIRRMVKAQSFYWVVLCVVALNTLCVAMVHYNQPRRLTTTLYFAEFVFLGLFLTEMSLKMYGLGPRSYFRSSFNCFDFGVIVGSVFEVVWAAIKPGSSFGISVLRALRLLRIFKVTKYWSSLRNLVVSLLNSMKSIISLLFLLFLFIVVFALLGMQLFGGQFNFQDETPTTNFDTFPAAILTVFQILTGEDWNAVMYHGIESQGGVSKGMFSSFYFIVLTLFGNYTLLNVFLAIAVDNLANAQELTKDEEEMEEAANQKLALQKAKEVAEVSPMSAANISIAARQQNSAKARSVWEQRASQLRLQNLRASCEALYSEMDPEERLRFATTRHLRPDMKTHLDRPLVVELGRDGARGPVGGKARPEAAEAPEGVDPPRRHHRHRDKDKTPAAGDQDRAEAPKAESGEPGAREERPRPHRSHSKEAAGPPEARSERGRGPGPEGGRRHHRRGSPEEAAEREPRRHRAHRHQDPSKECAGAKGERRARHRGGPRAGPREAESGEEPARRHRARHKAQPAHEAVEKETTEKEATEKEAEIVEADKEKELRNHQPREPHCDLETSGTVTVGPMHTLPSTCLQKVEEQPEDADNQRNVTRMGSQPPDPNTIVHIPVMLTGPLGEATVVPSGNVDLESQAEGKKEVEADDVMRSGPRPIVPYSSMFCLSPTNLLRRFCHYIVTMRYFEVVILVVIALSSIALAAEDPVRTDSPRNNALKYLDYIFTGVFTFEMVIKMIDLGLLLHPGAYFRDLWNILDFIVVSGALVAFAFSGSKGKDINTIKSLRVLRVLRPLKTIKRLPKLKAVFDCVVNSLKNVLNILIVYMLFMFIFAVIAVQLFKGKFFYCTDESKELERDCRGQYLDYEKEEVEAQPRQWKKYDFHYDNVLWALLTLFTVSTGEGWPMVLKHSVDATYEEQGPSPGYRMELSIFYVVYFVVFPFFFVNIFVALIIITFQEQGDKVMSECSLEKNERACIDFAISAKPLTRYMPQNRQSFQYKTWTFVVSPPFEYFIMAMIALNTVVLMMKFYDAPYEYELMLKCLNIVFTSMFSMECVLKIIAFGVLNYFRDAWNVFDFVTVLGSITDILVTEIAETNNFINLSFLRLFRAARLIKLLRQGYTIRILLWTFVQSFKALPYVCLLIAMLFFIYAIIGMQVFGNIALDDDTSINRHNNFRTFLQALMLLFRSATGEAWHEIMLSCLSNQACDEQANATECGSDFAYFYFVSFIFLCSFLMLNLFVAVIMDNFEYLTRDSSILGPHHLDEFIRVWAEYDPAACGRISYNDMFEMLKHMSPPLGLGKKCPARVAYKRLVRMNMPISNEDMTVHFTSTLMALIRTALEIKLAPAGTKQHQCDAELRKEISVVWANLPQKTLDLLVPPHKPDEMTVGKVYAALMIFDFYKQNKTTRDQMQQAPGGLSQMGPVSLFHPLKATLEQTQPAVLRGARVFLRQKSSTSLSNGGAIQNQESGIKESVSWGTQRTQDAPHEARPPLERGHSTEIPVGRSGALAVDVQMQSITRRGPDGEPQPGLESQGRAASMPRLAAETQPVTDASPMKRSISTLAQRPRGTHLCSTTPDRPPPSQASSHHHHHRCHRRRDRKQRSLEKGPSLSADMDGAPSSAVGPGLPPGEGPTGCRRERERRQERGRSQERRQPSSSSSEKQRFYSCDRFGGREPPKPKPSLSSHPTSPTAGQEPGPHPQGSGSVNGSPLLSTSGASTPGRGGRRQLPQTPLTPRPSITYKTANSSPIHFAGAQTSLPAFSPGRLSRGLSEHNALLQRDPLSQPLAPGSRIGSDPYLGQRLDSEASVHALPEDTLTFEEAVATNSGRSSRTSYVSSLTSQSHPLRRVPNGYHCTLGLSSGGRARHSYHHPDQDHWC
T1 sequence (Q02410 whole entry): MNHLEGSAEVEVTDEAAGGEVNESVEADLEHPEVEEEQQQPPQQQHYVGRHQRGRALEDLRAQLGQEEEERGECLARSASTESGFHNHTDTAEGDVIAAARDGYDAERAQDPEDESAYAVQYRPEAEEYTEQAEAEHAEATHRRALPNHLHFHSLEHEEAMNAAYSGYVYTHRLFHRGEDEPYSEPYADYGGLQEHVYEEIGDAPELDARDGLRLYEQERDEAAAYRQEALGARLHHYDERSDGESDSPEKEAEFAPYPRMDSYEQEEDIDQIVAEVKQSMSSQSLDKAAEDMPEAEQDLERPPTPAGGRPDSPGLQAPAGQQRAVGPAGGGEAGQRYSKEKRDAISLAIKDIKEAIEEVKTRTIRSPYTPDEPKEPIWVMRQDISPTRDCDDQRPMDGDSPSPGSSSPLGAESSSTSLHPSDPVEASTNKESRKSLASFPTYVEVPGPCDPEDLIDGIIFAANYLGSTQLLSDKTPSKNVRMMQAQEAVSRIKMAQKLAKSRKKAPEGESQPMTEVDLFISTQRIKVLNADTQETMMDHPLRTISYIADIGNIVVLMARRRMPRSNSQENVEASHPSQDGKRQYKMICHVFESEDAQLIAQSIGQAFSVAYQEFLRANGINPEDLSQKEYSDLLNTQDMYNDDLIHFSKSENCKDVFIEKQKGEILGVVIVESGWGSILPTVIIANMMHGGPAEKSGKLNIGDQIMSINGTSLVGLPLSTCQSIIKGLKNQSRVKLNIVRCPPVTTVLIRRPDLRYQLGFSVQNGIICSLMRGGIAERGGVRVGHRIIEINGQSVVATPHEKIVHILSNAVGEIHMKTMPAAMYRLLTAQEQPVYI
T8 sequence (P24822 whole entry): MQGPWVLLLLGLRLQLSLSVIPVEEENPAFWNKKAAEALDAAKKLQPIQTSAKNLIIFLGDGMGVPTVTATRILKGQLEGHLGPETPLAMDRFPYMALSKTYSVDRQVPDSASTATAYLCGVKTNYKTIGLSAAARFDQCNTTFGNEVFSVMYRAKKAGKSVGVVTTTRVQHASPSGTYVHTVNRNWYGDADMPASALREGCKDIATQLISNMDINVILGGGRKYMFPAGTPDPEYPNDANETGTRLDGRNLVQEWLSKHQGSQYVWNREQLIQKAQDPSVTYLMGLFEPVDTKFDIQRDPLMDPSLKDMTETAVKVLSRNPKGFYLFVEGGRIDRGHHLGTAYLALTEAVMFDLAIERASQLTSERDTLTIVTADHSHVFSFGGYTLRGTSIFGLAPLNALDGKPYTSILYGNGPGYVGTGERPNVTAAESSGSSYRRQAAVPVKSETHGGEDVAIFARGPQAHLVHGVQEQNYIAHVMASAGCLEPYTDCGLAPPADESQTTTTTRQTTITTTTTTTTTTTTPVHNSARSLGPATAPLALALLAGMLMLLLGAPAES
T3 sequence (Q99705 whole entry): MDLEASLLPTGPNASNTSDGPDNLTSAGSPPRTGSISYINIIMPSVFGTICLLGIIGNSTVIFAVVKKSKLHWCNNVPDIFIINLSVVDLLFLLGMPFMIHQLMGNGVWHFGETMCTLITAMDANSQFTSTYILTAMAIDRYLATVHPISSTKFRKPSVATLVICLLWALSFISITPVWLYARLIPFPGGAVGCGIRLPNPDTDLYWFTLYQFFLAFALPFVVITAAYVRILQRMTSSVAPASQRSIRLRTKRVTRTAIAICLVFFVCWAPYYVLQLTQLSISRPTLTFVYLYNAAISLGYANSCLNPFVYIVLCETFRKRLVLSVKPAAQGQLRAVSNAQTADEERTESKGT
T2 sequence (Q9HC16 whole entry): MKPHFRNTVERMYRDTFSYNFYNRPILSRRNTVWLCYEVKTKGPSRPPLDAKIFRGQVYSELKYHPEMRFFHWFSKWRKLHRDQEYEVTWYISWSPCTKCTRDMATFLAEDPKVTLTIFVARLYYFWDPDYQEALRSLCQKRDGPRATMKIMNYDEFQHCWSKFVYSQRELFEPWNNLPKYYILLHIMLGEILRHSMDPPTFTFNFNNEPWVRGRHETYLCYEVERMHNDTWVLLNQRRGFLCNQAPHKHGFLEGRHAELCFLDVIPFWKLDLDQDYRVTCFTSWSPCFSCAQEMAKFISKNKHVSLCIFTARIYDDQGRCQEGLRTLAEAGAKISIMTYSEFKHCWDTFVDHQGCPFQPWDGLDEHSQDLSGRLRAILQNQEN

Cc1cc(C)c2c(=O)n(CC(=O)NC3CCCC3)sc2n1
IC50 [1]: 7.6 µM (active) | IC50 [2]: > 80 µM (inactive) | IC50 [3]: 42.7 µM (active) | IC50 [4]: > 100 µM (inactive)

COc1ccccc1-n1c(SCC(N)=O)nnc1-c1ccc(S(=O)(=O)N2CCCCC2)cc1
IC50 [5]: > 20 µM (inactive) | EC50 [6]: 12.7 µM (active) | IC50 [7]: > 20 µM (inactive) | IC50 [8]: > 43.8 µM (not active) | IC50 [9]: 5.36 µM (active)

Cc1cc(C(=O)NC2CC(C)(C)Cc3c2cnn3-c2ccccc2)[nH]n1 (stereo unspecified)
EC50 [10]: 48.2 µM (active) | EC50 [11]: 70.7 µM (active) | EC50 [12]: 55.1 µM (active) | EC50 [13]: 45.5 µM (active)

Cc1nc2c3ccccc3nc(NNC(=O)CCC(=O)NCCN3CCN(c4ccccc4)CC3)n2n1
EC50 [10]: 14.1 µM (active) | EC50 [11]: 8.73 µM (active) | EC50 [13]: 13.7 µM (active) | IC50 [14]: 49.8 µM (active)

COc1ccccc1CNC(=O)c1cc(-c2ccco2)nc2ccccc12
IC50 (SUMO E1/E2): 2.51 µM (active) | IC50 [15]: 24.7 µM (active) | IC50 [16]: 22 µM (active)

Cc1cccn2c(=O)c3cc(C(=O)NC4CCCC4)c(=N)n(C4CCCCC4)c3nc12
EC50 [17]: > 91.2 µM (inactive) | EC50 [18]: > 91.2 µM (inactive) | IC50 [19]: > 100 µM (inactive) | IC50 [20]: 0.469 µM (active)

COc1ccc(-c2nc(N)s[n+]2-c2ccccc2)cc1
IC50 [21]: 1.25 µM (inactive)

CCCCCCCn1ccc(=N)cc1
IC50 [22]: 1.83 µM (active) | IC50 [23]: 2.51 µM (active) | IC50 (HEK293 [24]): 6.34 µM (active) | EC50 [25]: 8.15 µM (active) | EC50 (HEK293 [26]): 6.12 µM (active) | EC50 [27]: > 120 µM (not active) | IC50 (HEK293 [28]): > 20 µM (inactive) | IC50 (HEK293 [29]): 5.72 µM (active) | IC50 (HEK293 [30]): 18.1 µM (active) | EC50 [31]: 13 µM (active) | EC50 [32]: 14.8 µM (active)

Reference: ChEMBL document CHEMBL1201862, “PubChem BioAssay data set” (2004)
